Assay results: paper PMC11546719, “Immune Modulatory Profile of the Pateamines PatA and Des-Methyl Des-Amino PatA” (International Journal of Molecular Sciences, 2024)

Test system: B cells, T cells, M1 MdMs, M2 MdMs
Assay: Immune cell viability, formazan-based assay
Parameters: species or system human
Conditions: 48 h
Description: nitrogen, and the residue dissolved in 50 µl methanol. The analysis was performed with an Agilent 1290 Inﬁnity LC system (Agilent, Waldbronn, Germany) coupled to a hybrid triple quadrupole linear ion trap mass spectrometer QTRAP 6500+ (Sciex, Darmstadt, Ger-many) equipped with a Turbo-V-source operating in positive electrospray ionization mode. The chromatographic separation was carried out using an Acquity UPLC BEH C18 column (100x 2.1 mm, 1.7 µm; Waters, Eschborn, Deutschland), maintained at 40 °C. Mobile Phase A was 0.1% formic acid with 20 mM ammonium formate and mobile Phase B was meth-anol with 0.1% formic acid with 20 mM ammonium formate. A gradient program was em-ployed at a flow rate of 400 µl/min, as follows: initial 20% B to 0.5 min, increasing to 90% B from 0.5 to 4.5 min, with a hold time of 1.0 min. Re-equilibration was performed by reducing to 20% B from 5.5 to 5.6 min, and then holding at 20% B until 7.0 min.
For analysis and quantiﬁcation of all compounds, Analyst Software 1.7.1 and Multi-quant Software 3.0.3 (both Sciex, Darmstadt, Germany) were used. The precursor-to-prod-uct ion transitions used for quantiﬁcation were: m/z 237.1 → m/z 194.1 for carbamazepine, […]
482.2 for DMDA, and […]. […]
Supplementary Figure S1. […] Viability was determined by a formazan-based assay. […]

CC(/C=C/C(C)=C/[C@@H]1Cc2nc(cs2)CCCCC(=O)O[C@@H](C)C/C(C)=C/C=C\C(=O)O1)=C\CN(C)C [DMDA, des-methyl des-amino pateamine A]
Cytotoxicity in immune cell types: less cytotoxic in comparison with PatA
